For three compounds, melting point results are on record in patent publication US6846928B2, “Compositions useful as inhibitors of protein kinases” (Vertex Pharmaceuticals Incorporated, priority 2002, dated 2005).

The melting point is the temperature of the solid-liquid transition. As to `c1ccc(-c2nc(Nc3nccs3)c3ccccc3n2)cc1` [II-34, (2-Phenyl-quinazolin-4-yl)-(thiazol-2-yl)-amine], the melting point is 219 to 221 °C.
The compound `c1ccc(-c2nc(Nc3ncc(C4CC4)s3)c3ccccc3n2)cc1` [II-36, (5-Cyclopropyl-thiazol-2-yl)-(2-phenyl-quinazolin-4-yl)-amine] yielded a melting point of 161 to 162 °C.
As for `Cc1cnc(Nc2nc(-c3ccccc3)nc3ccccc23)s1` [II-35, (5-Methyl-thiazol-2-yl)-(2-phenyl-quinazolin-4-yl)-amine], the melting point lay within 215 to 216 °C.
